Experiment: physchem
Experimental: (§1) In this study, pure salicylic acid (SA) partitioning between cyclohexane and water versus salicylic acid partitioning between cyclohexane and water in SA Formulas A-D was investigated at pH 1 and at pH 7 simulating gastric fluids and duodenum fluids. The study was conducted by adding either SA, SA Formulas A-D into a cyclohexane/water partitioning system and measuring the differential partitioning of SA between the two phase as the value Log P.
as §1, with “naproxen (NAP)” for “salicylic acid (SA)”, “NAP” for “salicylic acid”, “NAP” for “SA”, “NAP, NAP” for “SA, SA”
as §1, with “indomethacin (INDO)” for “salicylic acid (SA)”, “INDO” for “salicylic acid”, “INDO” for “SA”, “INDO, INDO” for “SA, SA”
as §1, with “pure mefenamic” for “pure salicylic”, “acid (MFA)” for “acid (SA)”, “versus MFA” for “versus salicylic acid”, “in MFA” for “in SA”, “either MFA, MFA” for “either SA, SA”, “of MFA” for “of SA”

logD hydrocarbon water (pH 1)	logD hydrocarbon water (pH 7)	Structure (SMILES)
1.05	-1.81	COc1ccc2c(c1)c(CC(=O)O)c(C)n2C(=O)c1ccc(Cl)cc1 [INDO, indomethacin]
0	0.47	Cc1cccc(Nc2ccccc2C(=O)O)c1C [MFA, mefenamic acid]
-1.11	0	O=C(O)c1ccccc1O [SA, salicylic acid]
